“And” between values parts separate entries of the source, which are not always exact repeats. Equal values may be shown once. Where a name gives a salt, the structure may show the parent alone. Read-outs that look alike come from different tables or passages of the source.

One assay concerns the target DNMT1 (Homo sapiens, UniProt P26358). Briefly: DNMT1 biochemical activity, breaklight assay and/or SPA assay.
Assay [1] has as its system erythroid progenitor cells (EPCs). Briefly: Fetal hemoglobin (HbF) ELISA in day 7 erythroid progenitor cells.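 Also: for fetal hemoglobin induction normalized to vehicle-treated cells.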 The assay is classed as cell-based, human. The settings on record: Homo sapiens, Erythroid progenitor cell, HbF ELISA, day 7 EPCs, 5 days; read-out: EPC ELISA (pEC50 category) (converted). Put shortly:
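HbF induction was read by anti-HbF sandwich ELISA (HRP/TMB, OD450) on lysates and normalized to vehicle-treated cells. Cells were day 7 erythroid progenitors derived from human bone marrow CD34+ cells, seeded at 1,000/well with 3 U/mL rhEPO. Compound was given for 5 days at 37 °C at final concentrations […].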

Where [2] appears, read: binned activity in either the breaklight or the SPA assay.
The mark [3] stands for this setting: binned activity in either the breaklight or the SPA assay, read-out: DNMT1 BioChemical (pIC50 category) (converted).

Sequence of DNMT1 (P26358 whole entry, looked up): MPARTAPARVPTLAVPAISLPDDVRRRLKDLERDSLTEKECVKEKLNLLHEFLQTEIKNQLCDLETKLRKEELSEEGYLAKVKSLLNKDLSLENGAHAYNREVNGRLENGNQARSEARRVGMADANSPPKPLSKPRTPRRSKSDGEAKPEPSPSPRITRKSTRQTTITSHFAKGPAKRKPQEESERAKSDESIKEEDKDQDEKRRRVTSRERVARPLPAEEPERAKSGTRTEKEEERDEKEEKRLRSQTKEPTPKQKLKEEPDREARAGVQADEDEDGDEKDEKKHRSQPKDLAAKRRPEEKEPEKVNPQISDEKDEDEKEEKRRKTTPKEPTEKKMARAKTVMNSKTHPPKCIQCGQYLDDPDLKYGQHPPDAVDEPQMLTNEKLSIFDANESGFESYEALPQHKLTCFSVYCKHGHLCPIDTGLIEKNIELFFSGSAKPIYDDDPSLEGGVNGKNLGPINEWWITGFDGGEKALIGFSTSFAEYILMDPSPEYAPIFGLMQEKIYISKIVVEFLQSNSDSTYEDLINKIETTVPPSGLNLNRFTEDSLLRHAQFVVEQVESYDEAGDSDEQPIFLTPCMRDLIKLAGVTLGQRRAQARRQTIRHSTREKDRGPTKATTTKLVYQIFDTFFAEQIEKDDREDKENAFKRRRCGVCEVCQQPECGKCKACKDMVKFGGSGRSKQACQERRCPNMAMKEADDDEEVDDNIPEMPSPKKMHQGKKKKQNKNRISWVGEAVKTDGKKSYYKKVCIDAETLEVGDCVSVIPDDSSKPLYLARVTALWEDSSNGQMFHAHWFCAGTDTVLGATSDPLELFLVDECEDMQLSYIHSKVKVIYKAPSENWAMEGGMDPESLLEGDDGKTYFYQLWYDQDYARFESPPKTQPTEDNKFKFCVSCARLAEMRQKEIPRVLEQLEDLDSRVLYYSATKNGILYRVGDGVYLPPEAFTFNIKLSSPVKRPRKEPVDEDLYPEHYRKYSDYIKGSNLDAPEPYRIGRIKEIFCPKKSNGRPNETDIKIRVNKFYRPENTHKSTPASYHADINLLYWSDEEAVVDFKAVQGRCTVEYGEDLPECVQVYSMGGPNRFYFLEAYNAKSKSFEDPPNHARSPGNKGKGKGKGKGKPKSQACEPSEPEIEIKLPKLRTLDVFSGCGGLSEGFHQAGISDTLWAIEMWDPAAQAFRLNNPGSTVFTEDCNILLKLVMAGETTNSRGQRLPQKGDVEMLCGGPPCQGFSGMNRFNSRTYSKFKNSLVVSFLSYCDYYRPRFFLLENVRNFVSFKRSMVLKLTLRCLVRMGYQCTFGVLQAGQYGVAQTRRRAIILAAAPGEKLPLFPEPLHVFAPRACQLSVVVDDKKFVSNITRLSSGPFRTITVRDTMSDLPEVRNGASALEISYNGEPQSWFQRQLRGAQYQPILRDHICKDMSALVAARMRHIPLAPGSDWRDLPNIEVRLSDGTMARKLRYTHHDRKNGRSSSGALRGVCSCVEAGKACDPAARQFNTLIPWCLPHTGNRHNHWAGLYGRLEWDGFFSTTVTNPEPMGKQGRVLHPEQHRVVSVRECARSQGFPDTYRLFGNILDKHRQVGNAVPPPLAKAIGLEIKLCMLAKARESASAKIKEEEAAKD

`CCc1c(C#N)c(SC(C(N)=O)c2ccccc2)nc(N2CCC(N3CC[C@H](F)C3)CC2)c1C#N` (stereo partly drawn) [Example 457, 2-((3,5-dicyano-4-ethyl-6-(4-((S)-3-fluoropyrrolidin-1-yl)piperidin-1-yl)pyridin-2-yl)thio)-2-phenylacetamide]: the “DNMT1 BioChemical (pIC50 category)” value on DNMT1 (setting [2]) is given as “D (Category D: ≥6.5)”. Also, in assay [1], the EC50 was < 316 nM.
As to `CNC1CCCN(c2nc(SC(C(N)=O)c3ccccc3)c(C#N)c(C3CC3)c2C#N)C1` (centres unmarked) [Example 24, 2-((3,5-dicyano-4-cyclopropyl-6-(3-(methylamino)piperidin-1-yl)pyridin-2-yl)thio)-2-phenylacetamide], the “DNMT1 BioChemical (pIC50 category)” value at DNMT1 (setting [2]) was “D (Category D: ≥6.5)”. In addition, the EC50 in assay [1] was < 316 nM.
Taken in the same sequence, the figures for `CCc1c(C#N)c(SCc2ccc(CNC(=O)CN)cc2)nc(N(C)CCN(CC)CC)c1C#N` [Example 520, 2-amino-N-(4-(((3,5-dicyano-6-((2-(diethylamino)ethyl)(methyl)amino)-4-ethylpyridin-2-yl)thio)methyl)benzyl)acetamide] were “D (Category D: ≥6.5)” and < 316 nM.
Consider `CCc1c(C#N)c(SCc2ccc(N(C)S(C)(=O)=O)cc2)nc(N2CCC(NC(=O)[C@@H](C)N)CC2)c1C#N` [Example 584, (R)-2-amino-N-(1-(3,5-dicyano-4-ethyl-6-((4-(N-methylmethylsulfonamido)benzyl)thio)pyridin-2-yl)piperidin-4-yl)propanamide], for which the “DNMT1 BioChemical (pIC50 category)” value at DNMT1 (setting [2]) was “D (Category D: ≥6.5)”. Further, the EC50 in assay [1] is < 316 nM.
`CCc1c(C#N)c(SCc2ccc(CNC(C)=O)cc2)nc(N2CCC(OC(=O)[C@@H](N)C(C)C)CC2)c1C#N` [Example 289, (S)-1-(6-((4-(Acetamidomethyl)benzyl)thio)-3,5-dicyano-4-ethylpyridin-2-yl)piperidin-4-yl 2-amino-3-methylbutanoate]: on DNMT1 (setting [3]), the IC50 was 316 to 1000 nM. For the same compound, in assay [1], the EC50 was 1000 to 31600 nM.
Take `CCc1c(C)c(N2CCC(N)CC2)nc(SC(C(N)=O)c2ccccc2)c1C#N` (centres unmarked) [Example 376, 2-(6-(4-Aminopiperidin-1-yl)-3-cyano-4-ethyl-5-methylpyridin-2-ylthio)-2-phenylacetamide]: the IC50 on DNMT1 (setting [3]) is 316 to 1000 nM. Besides, in assay [1], the EC50 was 316 to 1000 nM.
On to `CCc1c(C#N)c(SCc2ccc3[nH]cnc3c2)nc(N2CCCN(C)CC2)c1C#N` [Example 390, 2-(((1H-Benzo[d]imidazol-5-yl)methyl)thio)-4-ethyl-6-(4-methyl-1,4-diazepan-1-yl)pyridine-3,5-dicarbonitrile], for which the IC50 on DNMT1 (setting [3]) is 316 to 1000 nM. The EC50 in assay [1] is 316 to 1000 nM.
`CCc1c(C#N)c(SCc2ccc(NC(=O)OC(C)(C)C)cc2)nc(N2CCCN(C)CC2)c1C#N` [Example 296, tert-Butyl (4-(((3,5-dicyano-4-ethyl-6-(4-methyl-1,4-diazepan-1-yl)pyridin-2-yl)thio)methyl)phenyl)carbamate]: at DNMT1 (setting [3]), the IC50 was 316 to 1000 nM. The EC50 in assay [1] was > 31600 nM.
`CCc1c(C#N)c(SC(C(N)=O)c2ccccc2)nc(N2CCC(N(C)C)CC2)c1C#N` (centres unmarked) [Example 548, 2-((3,5-dicyano-6-(4-(dimethylamino)piperidin-1-yl)-4-ethylpyridin-2-yl)thio)-2-phenylacetamide]: the “DNMT1 BioChemical (pIC50 category)” value at DNMT1 (setting [2]) is given as “D (Category D: ≥6.5)”. In assay [1], the EC50 was < 316 nM.
Taken in the same sequence, the figures for `CCc1c(C#N)c(SC(C(N)=O)c2ccccc2)nc(N2CCC[C@H](NC3COC3)C2)c1C#N` (stereo partly drawn) [Example 640, 2-((3,5-dicyano-4-ethyl-6-((S)-3-(oxetan-3-ylamino)piperidin-1-yl)pyridin-2-yl)thio)-2-phenylacetamide] were “D (Category D: ≥6.5)” and < 316 nM.
Taken in the same sequence, the figures for `CCc1c(C#N)c(SCc2ccc(CNC(C)=O)cc2)nc(N2CC(OC(=O)[C@@H](N)C(C)C)C2)c1C#N` [Example 282, (S)-1-(6-((4-(Acetamidomethyl)benzyl)thio)-3,5-dicyano-4-ethylpyridin-2-yl)azetidin-3-yl 2-amino-3-methylbutanoate, Trifluoroacetic Acid Salt] were “D (Category D: ≥6.5)” and 1000 to 31600 nM.
On to `CCc1c(C#N)c(SC(C(N)=O)c2ccccc2)nc(N(C)CCN2CCCCC2)c1C#N` (centres unmarked) [Example 478, 2-((3,5-dicyano-4-ethyl-6-(methyl(2-(piperidin-1-yl)ethyl)amino)pyridin-2-yl)thio)-2-phenylacetamide], for which, at DNMT1 (setting [2]), the “DNMT1 BioChemical (pIC50 category)” value was “D (Category D: ≥6.5)”. Also, in assay [1], the EC50 is < 316 nM.
Consider `CCc1c(C#N)c(SCc2ccc(N(C)S(C)(=O)=O)cc2)nc(N2CCC(NC(=O)[C@H](C)N)CC2)c1C#N` [Example 585, (S)-2-amino-N-(1-(3,5-dicyano-4-ethyl-6-((4-(N-methylmethylsulfonamido)benzyl)thio)pyridin-2-yl)piperidin-4-yl)propanamide], for which the “DNMT1 BioChemical (pIC50 category)” value on DNMT1 (setting [2]) was “D (Category D: ≥6.5)”. The EC50 in assay [1] was < 316 nM.
In the case of `CCc1c(C#N)c(SCc2ccc(CN)cc2)nc(N2CCC(N3CCCC3)CC2)c1C#N` [Example 68, 2-(4-(Aminomethyl)benzylthio)-4-ethyl-6-(4-(pyrrolidin-1-yl)piperidin-1-yl)pyridine-3,5-dicarbonitrile 2,2,2-trifluoroacetate], at DNMT1 (setting [3]), the IC50 is 316 to 1000 nM. For the same compound, the EC50 in assay [1] was > 31600 nM.
`CCc1c(C#N)c(SC(C(N)=O)c2ccccc2)nc(N2CCC(NC(=O)C(C)(C)N)CC2)c1C#N` (centres unmarked) [Example 148]: at DNMT1 (setting [2]), the “DNMT1 BioChemical (pIC50 category)” value was “D (Category D: ≥6.5)”. For the same compound, the “average pIC50 against DNMT1” value at DNMT1 (breaklight assay and/or SPA assay, repeated experimental runs) was > 6.5. The EC50 in assay [1] was < 316 nM.
In the case of `CCc1c(C#N)c(SC(C(N)=O)c2cccc(P(C)(C)=O)c2)nc(N2CC[C@H](O)C2)c1C#N` (stereo partly drawn) [Example 420, 2-((3,5-Dicyano-4-ethyl-6-((S)-3-hydroxypyrrolidin-1-yl)pyridin-2-yl)thio)-2-(3-(dimethylphosphoryl)phenyl)acetamide], on DNMT1 (setting [3]), the IC50 was 316 to 1000 nM. The EC50 in assay [1] is 1000 to 31600 nM.
With `CCc1c(C#N)c(SC(C(N)=O)c2ccccc2)nc(N(C)CCN2[C@@H](C)CC[C@@H]2C)c1C#N` (stereo partly drawn) [Example 490, 2-((3,5-dicyano-6-((2-((2S,5S)-2,5-dimethylpyrrolidin-1-yl)ethyl)(methyl)amino)-4-ethylpyridin-2-yl)thio)-2-phenylacetamide], the “DNMT1 BioChemical (pIC50 category)” value at DNMT1 (setting [2]) is “D (Category D: ≥6.5)”. For the same compound, the EC50 in assay [1] was 316 to 1000 nM.
Taken in the same sequence, the figures for `CCc1c(C#N)c(SC(C(N)=O)c2ccccc2)nc(N2CCO[C@@H](CNCC(C)(C)C)C2)c1C#N` (stereo partly drawn) [Example 567, 2-((3,5-dicyano-4-ethyl-6-((S)-2-((neopentylamino)methyl)morpholino)pyridin-2-yl)thio)-2-phenylacetamide] were “D (Category D: ≥6.5)” and < 316 nM.
`CCc1c(C#N)c(SC(C(N)=O)c2ccccc2)nc(N2CCC(OP(=O)(O)O)CC2)c1C#N` (centres unmarked) [Example 155, 1-(6-((2-Amino-2-oxo-1-phenylethyl)thio)-3,5-dicyano-4-ethylpyridin-2-yl)piperidin-4-yl dihydrogen phosphate]: at DNMT1 (setting [3]), the IC50 was 1000 to 31600 nM. In addition, the EC50 in assay [1] is > 31600 nM.
Take `CCc1c(C#N)c(SCc2ccc(CNC(=O)CN)cc2)nc(N2CC[C@@H](N)[C@@H](F)C2)c1C#N` (relative stereo) [Example 546, rel-2-amino-N-(4-(((6-(cis-4-amino-3-fluoropiperidin-1-yl)-3,5-dicyano-4-ethylpyridin-2-yl)thio)methyl)benzyl)acetamide]: the IC50 on DNMT1 (setting [3]) was 316 to 1000 nM; at DNMT1 (breaklight assay and/or SPA assay, repeated experimental runs, read-out: average pIC50 against DNMT1 (converted)) it was 316 to 1000 nM and 398 nM. Besides, the EC50 in assay [1] was < 316 nM.
Consider `CCc1c(C#N)c(SC(C(N)=O)c2cccnc2F)nc(N2CCCN(C)CC2)c1C#N` (centres unmarked) [Example 225], for which the IC50 at DNMT1 (setting [3]) is 1000 to 31600 nM. Besides, the EC50 in assay [1] was 316 to 1000 nM.
Taken in the same sequence, the figures for `CCc1c(C#N)c(SC(C(N)=O)c2cccc(C(F)(F)F)c2)nc(N2CCCN(C)CC2)c1C#N` (centres unmarked) [Example 223, 2-((3,5-Dicyano-4-ethyl-6-(4-methyl-1,4-diazepan-1-yl)pyridin-2-yl)thio)-2-(3-(trifluoromethyl)phenyl)acetamide] were 316 to 1000 nM and 1000 to 31600 nM.
For the compound `N#Cc1c(SC(C(N)=O)c2ccccc2)nc(N2CCC[C@H](O)C2)c(C#N)c1C1CC1` (stereo partly drawn) [Example 33, 2-(3,5-dicyano-4-cyclopropyl-6-((S)-3-hydroxypiperidin-1-yl)pyridin-2-ylthio)-2-phenylacetamide], on DNMT1 (setting [3]), the IC50 was 316 to 1000 nM. For the same compound, in assay [1], the EC50 was 316 to 1000 nM.
For the compound `CCc1c(C#N)c(SC(C(N)=O)c2ccccc2)nc(N2CCC(C)(NCC(F)F)CC2)c1C#N` (centres unmarked) [Example 232], the IC50 at DNMT1 (setting [3]) was 316 to 1000 nM. Also, the EC50 in assay [1] is 316 to 1000 nM.
Turning to `CCc1c(C#N)c(SC(C(N)=O)c2ccccc2)nc(N2CC[C@@H](N)[C@@H](F)C2)c1C#N` (relative stereo) [Example 545, rel-2-((6-cis-4-amino-3-fluoropiperidin-1-yl)-3,5-dicyano-4-ethylpyridin-2-yl)thio)-2-phenylacetamide], the IC50 on DNMT1 (setting [3]) is < 316 nM. Also, the EC50 in assay [1] is < 316 nM.
Turning to `CCc1c(C#N)c(SC(C(N)=O)c2ccccc2)nc(N2CCC(N3CCC[C@H]3CO)CC2)c1C#N` (stereo partly drawn) [Example 441, 2-((3,5-dicyano-4-ethyl-6-(4-((S)-2-(hydroxymethyl)pyrrolidin-1-yl)piperidin-1-yl)pyridin-2-yl)thio)-2-phenylacetamide], on DNMT1 (setting [2]), the “DNMT1 BioChemical (pIC50 category)” value is on record as “D (Category D: ≥6.5)”. In addition, in assay [1], the EC50 is < 316 nM.
For `CCc1c(C#N)c(SC(C(N)=O)c2ccnc(C)c2)nc(N2CCCN(C)CC2)c1C#N` (centres unmarked) [Example 246, 2-((3,5-Dicyano-4-ethyl-6-(4-methyl-1,4-diazepan-1-yl)pyridin-2-yl)thio)-2-(2-methylpyridin-4-yl)acetamide], the IC50 at DNMT1 (setting [3]) was 316 to 1000 nM. Also, the EC50 in assay [1] is > 31600 nM.
